Patent US7714132B2, “Tetrahydropyridoindole derivatives” (Actelion Pharmaceuticals, Ltd., priority 2004, dated 2010)

Molecular target: T1, hCRTH2 receptor (Homo sapiens, UniProt Q9Y5Y4)
T1 construct: expressed in transfected cells
T1 sequence (Q9Y5Y4 1-395): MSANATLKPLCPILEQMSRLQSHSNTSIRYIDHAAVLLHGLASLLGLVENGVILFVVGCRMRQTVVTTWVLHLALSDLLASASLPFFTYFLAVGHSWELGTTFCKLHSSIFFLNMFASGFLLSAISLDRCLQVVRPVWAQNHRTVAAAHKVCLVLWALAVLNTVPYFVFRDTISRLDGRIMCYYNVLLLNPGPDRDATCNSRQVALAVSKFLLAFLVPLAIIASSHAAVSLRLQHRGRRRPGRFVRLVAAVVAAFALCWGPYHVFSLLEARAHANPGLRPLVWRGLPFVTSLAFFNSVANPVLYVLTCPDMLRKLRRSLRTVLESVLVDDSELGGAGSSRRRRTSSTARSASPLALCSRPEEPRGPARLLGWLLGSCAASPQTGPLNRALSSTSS
Experiment: CRTH2 membranes radioligand binding assay ({3H}-PGD2)
Conditions: membranes of HEK 293 cells expressing recombinant hCRTH2; {3H}-PGD2 2.5 nM; 90 min
Protocol: Biological Assay: Preparation of CRTH2 Membranes and Radioligand Binding Assay:
Preparation of the membranes and radioligand binding assays are performed according to known procedures, e.g. Sawyer N. et al. (Br. J. Pharmacol., 2002, 137, 1163-1172). A clonal HEK 293 cell line, expressing high level of recombinant hCRTH2 receptor, is selected for the preparation of membranes. Cells are detached from culture plates in 5 ml buffer A per plate (5 mM Tris, 1 mM MgCl2x6 H2O, 0.1 mM PMSF, 0.1 mM phenanthroline) using a police rubber and transferred into centrifugation tubes and frozen at −80° C. After thawing, the cells are centrifuged at 500 g for 5 min and then resuspended in buffer A. Cells are then fragmented by homogeinization with a Polytron homogenizer for 30 s. The membrane fragments are centrifuged at 3000 g for 40 min and resuspended in membranes in buffer B (50 mM Tris, 25 mM MgCl2, 250 mM saccharose, pH 7.4) and aliquots are stored frozen.
Binding assay is performed in a total volume of 250 μl. In each well, 75 μl buffer C (50 mM Tris, 100 mM NaCl, 1 mM EDTA, 0.1% B SA (protease free), 0.01% NaN3, pH 7.4) is mixed with 50 μl {^3H}-PGD2 (at 2.5 nM (220.000 dpm per well) from Amersham, TRK734), 100 μl CRTH2 membranes to give 80 μg per well and 25 μl of test compound in buffer C containing 1% DMSO. For unspecific binding, PGD2 is added to the reaction mixture at 1 μM final concentration. This binding assay mix is incubated at it for 90 min and then filtered through a GF/C filter plate. The filter is washed three times with ice cold binding buffer. Then, 40 μl per well Microscint-40 (Packard) are added and the bound radioactivity is quantified by means of Topcourt (Packard).

Structure (SMILES)	IC50
Cc1cccc(C(=O)N2CCc3c(c4ccccc4n3CC(=O)O)C2)c1Br [[2-(2-bromo-3-methyl-benzoyl)-1,2,3,4-tetrahydro-pyrido[4,3-b]indol-5-yl]-acetic acid]	14 nM
CCc1ccc(-c2ccc(C(=O)N3CCc4c(c5cc(F)ccc5n4CC(=O)O)C3)cc2)cc1 [[2-(4′-ethyl-biphenyl-4-carbonyl)-8-fluoro-1,2,3,4-tetrahydro-pyrido[4,3-b]indol-5-yl]-acetic acid]	1 nM
CCc1ccc(-c2ccc(C(=O)N3CCc4c(c5ccccc5n4CC(=O)O)C3)cc2)cc1 [[2-(4′-ethyl-biphenyl-4-carbonyl)-1,2,3,4-tetrahydro-pyrido[4,3-b]indol-5-yl]-acetic acid]	7 nM
O=C(O)Cn1c2c(c3cc(C(F)(F)F)ccc31)CN(C(=O)c1ccccc1)CC2 [(2-benzoyl-8-trifluoromethyl-1,2,3,4-tetrahydro-pyrido[4,3-b]indol-5-yl)-acetic acid]	1 nM
O=C(O)Cn1c2c(c3ccccc31)CN(C(=O)c1cccc(Cl)c1)CC2 [[2-(3-chloro-benzoyl)-1,2,3,4-tetrahydro-pyrido[4,3-b]indol-5-yl]-acetic acid]	15 nM

The next lines start with the values.

IC50	Structure (SMILES)
3 nM	O=C(O)Cn1c2c(c3cc(F)ccc31)CN(C(=O)Cc1cccc3ccccc13)CC2 [[8-fluoro-2-(2-naphthalen-1-yl-acetyl)-1,2,3,4-tetrahydro-pyrido[4,3-b]indol-5-yl]-acetic acid]
12 nM	O=C(O)Cn1c2c(c3ccccc31)CN(C(=O)c1cccc3c(Br)cccc13)CC2 [[2-(5-bromo-naphthalene-1-carbonyl)-1,2,3,4-tetrahydro-pyrido[4,3-b]indol-5-yl]-acetic acid]
4 nM	O=C(O)Cn1c2c(c3cc(Br)ccc31)CN(C(=O)c1cccs1)CC2 [[8-bromo-2-(thiophene-2-carbonyl)-1,2,3,4-tetrahydro-pyrido[4,3-b]indol-5-yl]-acetic acid]

Molecular target: T1, hCRTH2 receptor
Experiment: Intracellular calcium mobilization assay (FLIPR), antagonism of prostaglandin D2
Type: cell-based
Conditions: HEK-293 cells stably expressing hCRTH2; agonist prostaglandin D2 10 nM final; read-out: FLIPR CRTH2 IC50
Protocol: Intracellular Calcium Mobilization Assay (FLIPR):
Cells (HEK-293), stably expressing the hCRTH2 receptor under the control of the cytomegalovirus promotor from a single insertion of the expression vector pcDNA5 (Invitrogen), are grown to confluency in DMEM (low glucose, Gibco) medium supplemented with 10% fetal calf serum (both Bioconcept, Switzerland) under standard mammalian cell culture conditions (37° C. in a humidified atmosphere of 5% CO2). Cells are detached from culture dishes using a dissociation buffer (0.02% EDTA in PBS, Gibco) for 1 min, and collected by centrifugation at 200 g at rt for 5 min in assay buffer [equal parts of Hank's BSS (HBSS, Bioconcept) and DMEM (low glucose, without phenol red, Gibco)]. After incubation for 45 min (37° C. and 5% CO2) in the presence of 1 μM Fluo-4 and 0.04% Pluronic F-127 (both Molecular Probes), 20 mM HEPES (Gibco) in assay buffer, the cells are washed with and resuspended in assay buffer, then seeded onto 3 84-welt FLIPR assay plates (Greiner) at 50,000 cells in 66 μl per well, and sedimented by centrifugation.
Stock solutions of test compounds are made up at a concentration of 10 mM in DMSO, and serially diluted in assay buffer to concentrations required for inhibition dose response curves. Prostaglandin D2 (Biomol, Plymouth Meeting, Pa.) is used as an agonist.
A FLIPR384 instrument (Molecular Devices) is operated according to the manufacturer's standard instructions, adding 4 μl of test compound dissolved at 10 mM in DMSO and diluted prior to the experiment in assay buffer to obtain the desired final concentration. 10 μl of 80 nM prostaglandin D2 (Biomol, Plymouth Meeting, Pa.) in assay buffer, supplemented with 0.8% bovine serum albumin (fatty acid content<0.02%, Sigma), is then added to obtain a final concentration of 10 nM and 0.1%, respectively. Changes in fluorescence are monitored before and after the addition of test compounds at λex=488 nm and λem=540 nm. Emission peak values above base level after prostaglandin D2 addition are exported after base line subtraction. Values are normalized to high-level control (no test compound added) after subtraction of base line value (no prostaglandin D2 added). The program XLlfit 3.0 (IDBS) is used to fit the data to a single site dose response curve of the equation (A+((B−A)/(1+((C/x)^D)))) and to calculate the IC50 values.

Structure (SMILES)	IC50
CC(C)(C)OC(=O)N1CCc2c(c3cc(F)ccc3n2CC(=O)O)C1 [5-carboxymethyl-8-fluoro-1,3,4,5-tetrahydro-pyrido[4,3-b]indole-2-carboxylic acid tert-butyl ester]	22 nM
O=C(O)Cn1c2c(c3ccccc31)CN(C(=O)c1cccc3[nH]ccc13)CC2 [[2-(1H-indole-4-carbonyl)-1,2,3,4-tetrahydro-pyrido[4,3-b]indol-5-yl]-acetic acid]	19 nM
O=C(O)Cn1c2c(c3ccccc31)CN(C(=O)c1cccc(Cl)c1)CC2 [[2-(3-chloro-benzoyl)-1,2,3,4-tetrahydro-pyrido[4,3-b]indol-5-yl]-acetic acid]	174 nM
O=C(O)Cn1c2c(c3ccccc31)CN(C(=O)c1ccc(Br)cc1)CC2 [[2-(4-bromo-benzoyl)-1,2,3,4-tetrahydro-pyrido[4,3-b]indol-5-yl]-acetic acid]	83 nM
COc1cc(C(=O)N2CCc3c(c4ccccc4n3CC(=O)O)C2)cc(OC)c1OC [[2-(3,4,5-trimethoxy-benzoyl)-1,2,3,4-tetrahydro-pyrido[4,3-b]indol-5-yl]-acetic acid]	91 nM

Results, then the compound that gave them:

IC50	Structure (SMILES)
15 nM	Cc1cccc(C(=O)N2CCc3c(c4cc(Br)ccc4n3CC(=O)O)C2)c1Br [[8-bromo-2-(2-bromo-3-methyl-benzoyl)-1,2,3,4-tetrahydro-pyrido[4,3-b]indol-5-yl]-acetic acid]
50 nM	O=C(O)Cn1c2c(c3cc(Cl)ccc31)CN(C(=O)c1cccs1)CC2 [[8-chloro-2-(thiophene-2-carbonyl)-1,2,3,4-tetrahydro-pyrido[4,3-b]indol-5-yl]-acetic acid]
88 nM	O=C(O)Cn1c2c(c3ccccc31)CN(C(=O)c1ccco1)CC2 [[2-(furan-2-carbonyl)-1,2,3,4-tetrahydro-pyrido[4,3-b]indol-5-yl]-acetic acid]
3 nM	COc1ccc2ccccc2c1C(=O)N1CCc2c(c3cc(Cl)ccc3n2CC(=O)O)C1 [[8-chloro-2-(2-methoxy-naphthalene-1-carbonyl)-1,2,3,4-tetrahydro-pyrido[4,3-b]indol-5-yl]-acetic acid]
